Data: US9078845B2, “Anti-microbial agent” (priority 2005, dated 2015)

How the values were obtained:
[1] = test system: Pseudomonas aeruginosa; assay: suspension test; format: cell-based; details: after 30 mins
Description: The compositions were tested for antimicrobial activity using the suspension test in Example 3 outlined at room temperature against the following organisms:
The anti-microbial activity of a-linolenic acid and terpinen-4-ol separately and in combination were tested using the suspension test as outlined in Example 3 above.

[2] = test system: Escherichia coli ATCC 8739; details: 48 hours at 37° C.
[3] = test system: Staphylococcus aureus ATCC 6538; details: 48 hours at 37° C.
[4] = test system: Morazella Catarrhalis; details: 48 hours at 37° C.
[5] = test system: Methicillin Resistant Staphylococcus Wild Strain; details: 48 hours at 37° C.
[6] = test system: Streptococcus pyogenes University of Melbourne MDU; details: 48 hours at 37° C.
[7] = test system: Salmonella cholerae-suis ATCC 10708; assay: Minimum Inhibitory Concentration Test (broth dilution, turbidity); format: cell-based; details: 48 hours at 37° C.
[8] = dilution 1:100 in Tryptone Soya broth
[9] = dilution 1:200 in Tryptone Soya broth
[10] = dilution 1:400 in Tryptone Soya broth
[11] = dilution 1:800 in Tryptone Soya broth
[12] = dilution 1:1600 in Tryptone Soya broth
[13] = dilution 1:3200 in Tryptone Soya broth
[14] = dilution 1:6400 in Tryptone Soya broth
[15] = dilution 1:12800 in Tryptone Soya broth
[16] = dilution 1:25600 in Tryptone Soya broth
[17] = dilution 1:51200 in Tryptone Soya broth
[18] = dilution 1:102400 in Tryptone Soya broth

CC1=CCC(O)(C(C)C)CC1 (stereo not drawn) [terpinen-4-ol]
reduction in the survival of P. aeruginosa [1]: 1 log10

CC/C=C\C/C=C\C/C=C\CCCCCCCC(=O)O [α-linolenic acid]
Growth (turbidity) at Dilution 1:100 [2, 8]: + | Growth (turbidity) at Dilution 1:200 [2, 9]: + | Growth (turbidity) at Dilution 1:400 [2, 10]: + | Growth (turbidity) at Dilution 1:800 [2, 11]: + | Growth (turbidity) at Dilution 1:1600 [2, 12]: + | Growth (turbidity) at Dilution 1:3200 [2, 13]: + | Growth (turbidity) at Dilution 1:6400 [2, 14]: + | Growth (turbidity) at Dilution 1:12800 [2, 15]: + | Growth (turbidity) at Dilution 1:25600 [2, 16]: + | Growth (turbidity) at Dilution 1:51200 [2, 17]: + | Growth (turbidity) at Dilution 1:102400 [2, 18]: + | Growth (turbidity) at Dilution 1:100 [3, 8]: − | Growth (turbidity) at Dilution 1:200 [3, 9]: − | Growth (turbidity) at Dilution 1:400 [3, 10]: − | Growth (turbidity) at Dilution 1:800 [3, 11]: − | Growth (turbidity) at Dilution 1:1600 [3, 12]: − | Growth (turbidity) at Dilution 1:3200 [3, 13]: − | Growth (turbidity) at Dilution 1:6400 [3, 14]: − | Growth (turbidity) at Dilution 1:12800 [3, 15]: − | Growth (turbidity) at Dilution 1:25600 [3, 16]: − | Growth (turbidity) at Dilution 1:102400 [3, 18]: + | Growth (turbidity) at Dilution 1:100 [4, 8]: − | Growth (turbidity) at Dilution 1:200 [4, 9]: − | Growth (turbidity) at Dilution 1:400 [4, 10]: − | Growth (turbidity) at Dilution 1:800 [4, 11]: − | Growth (turbidity) at Dilution 1:1600 [4, 12]: − | Growth (turbidity) at Dilution 1:3200 [4, 13]: − | Growth (turbidity) at Dilution 1:6400 [4, 14]: − | Growth (turbidity) at Dilution 1:12800 [4, 15]: + | Growth (turbidity) at Dilution 1:25600 [4, 16]: + | Growth (turbidity) at Dilution 1:51200 [4, 17]: + | Growth (turbidity) at Dilution 1:102400 [4, 18]: + | reduction in the survival of P. aeruginosa [1]: 1 log10 | Growth (turbidity) at Dilution 1:100 [5, 8]: − | Growth (turbidity) at Dilution 1:200 [5, 9]: − | Growth (turbidity) at Dilution 1:400 [5, 10]: − | Growth (turbidity) at Dilution 1:800 [5, 11]: − | Growth (turbidity) at Dilution 1:1600 [5, 12]: − | Growth (turbidity) at Dilution 1:3200 [5, 13]: − | Growth (turbidity) at Dilution 1:6400 [5, 14]: − | Growth (turbidity) at Dilution 1:12800 [5, 15]: − | Growth (turbidity) at Dilution 1:25600 [5, 16]: − | Growth (turbidity) at Dilution 1:51200 [5, 17]: − | Growth (turbidity) at Dilution 1:102400 [5, 18]: + | Growth (turbidity) at Dilution 1:100 [6, 8]: − | Growth (turbidity) at Dilution 1:200 [6, 9]: − | Growth (turbidity) at Dilution 1:400 [6, 10]: − | Growth (turbidity) at Dilution 1:800 [6, 11]: − | Growth (turbidity) at Dilution 1:1600 [6, 12]: − | Growth (turbidity) at Dilution 1:3200 [6, 13]: − | Growth (turbidity) at Dilution 1:6400 [6, 14]: − | Growth (turbidity) at Dilution 1:12800 [6, 15]: − | Growth (turbidity) at Dilution 1:51200 [6, 17]: + | Growth (turbidity) at Dilution 1:102400 [6, 18]: + | Growth (turbidity) at Dilution 1:100 [7, 8]: − | Growth (turbidity) at Dilution 1:200 [7, 9]: − | Growth (turbidity) at Dilution 1:400 [7, 10]: + | Growth (turbidity) at Dilution 1:800 [7, 11]: + | Growth (turbidity) at Dilution 1:1600 [7, 12]: + | Growth (turbidity) at Dilution 1:3200 [7, 13]: + | Growth (turbidity) at Dilution 1:6400 [7, 14]: + | Growth (turbidity) at Dilution 1:12800 [7, 15]: + | Growth (turbidity) at Dilution 1:25600 [7, 16]: + | Growth (turbidity) at Dilution 1:51200 [7, 17]: + | Growth (turbidity) at Dilution 1:102400 [7, 18]: +
